Data taken from article PMC11796312, “Multifunctional, Fluorene‐Based Modulator of Cholinergic and GABAergic Neurotransmission as a Novel Drug Candidate for Palliative Treatment of Alzheimer's Disease” (Angewandte Chemie (International Ed. in English), 2024).
“Also recorded” adds a separate entry of the source. Read-outs that look alike come from different tables or passages of the source.

Key:
hGAT‐3 = details: cited from earlier work
[1] = target: T1, human butyrylcholinesterase (hBuChE) (Homo sapiens, UniProt P06276); experiment: biochemical; details: inhibitor concentration 1 μM; read-out: hBuChE % inh.
T1 construct: from human plasma was from Vivonics (Bedford, MA, USA); purchased Vivonics (Bedford, MA, USA); host or cells: human plasma
T1 sequence (P06276 29-602): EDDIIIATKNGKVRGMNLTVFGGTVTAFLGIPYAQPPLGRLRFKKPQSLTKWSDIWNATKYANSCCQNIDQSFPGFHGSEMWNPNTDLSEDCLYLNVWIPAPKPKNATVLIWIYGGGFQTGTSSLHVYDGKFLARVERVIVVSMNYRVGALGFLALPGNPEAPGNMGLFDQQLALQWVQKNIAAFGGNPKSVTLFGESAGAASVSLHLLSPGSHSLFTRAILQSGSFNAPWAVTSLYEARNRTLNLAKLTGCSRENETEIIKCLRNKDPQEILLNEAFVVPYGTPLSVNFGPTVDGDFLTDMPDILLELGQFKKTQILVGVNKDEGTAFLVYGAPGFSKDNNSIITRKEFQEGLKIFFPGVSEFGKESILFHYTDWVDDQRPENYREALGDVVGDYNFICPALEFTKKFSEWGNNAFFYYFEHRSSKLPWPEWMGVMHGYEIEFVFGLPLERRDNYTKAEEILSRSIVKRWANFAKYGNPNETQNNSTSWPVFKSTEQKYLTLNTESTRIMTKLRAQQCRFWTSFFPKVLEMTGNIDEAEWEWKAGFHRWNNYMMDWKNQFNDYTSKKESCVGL

[2] = test system: mice treated with scopolamine; experiment: Passive avoidance (PA) task, scopolamine-induced amnesia; assay type: in vivo; details: mouse, in vivo
Protocol: Animals and housing conditions
In all pharmacodynamic in vivo experiments, except for the Barnes maze (BM) task, adult male Albino Swiss (CD-1) mice weighing between 18 and 22 g and purchased from the Animal Breeding Farm of the Faculty of Pharmacy, Jagiellonian University Medical College were used. In BM task, C57BL/6J mice of the same weight (Animalab, Poland) were used.
Animals were housed in cages (10 mice per cage) at a constant temperature of 22 ± 2 °C, humidity of 55 ± 10%, and a light/dark (12:12) cycle (lights on at 7 AM). Before the experiments, the animals had unlimited access to food and water. Specified conditions for the maintenance of mice were ensured throughout the experiments, including tree bedding (Transwior, Poland) and cage enrichment (tunnels, nesting material, wooden igloos, etc.). […]
doses for behavioral assays. Lower doses were also assessed if at least one of them was […]
On the first day, during the acquisition trial (a conditioning phase), the test compound 6, scopolamine, and vehicle were injected. […] The latency between opening the guillotine gate and the mouse entering the black compartment was measured for each mouse. On the next day, during the retention (drug-off) trial, the mice were placed again into the white compartment for a 30-s habituation period, and the latency to enter the black compartment was measured for each mouse. […]

BuChE = details: 1 or 5 µM compound (printed '1 or 5 M'), vs DMSO

**Q.** With COc1ccc(C(OCCN2CCC[C@H](C(=O)O)C2)(c2ccc(OC)cc2)c2ccc(OC)cc2)cc1 [(S)‐SNAP‐5114, reference compound] as the compound, how does the IC50 (hGAT‐3) read?
**A.** 45 µM

**Q.** With O=C(CC(c1ccccc1)c1ccccc1)N[C@@H](Cc1ccccc1)[C@@H](O)CNCc1ccccc1 [Compound I] as the compound, how does the IC50 (hGAT‐3; earlier screening) read?
**A.** 3 µM

**Q.** And the inhibition at 1 µM [1]?
**A.** 67.7%

**Q.** What about the “pro-cognitive effect in passive avoidance task” value [2] of the same compound?
**A.** did not observe pro‐cognitive effects; also recorded: non active

**Q.** With Nc1c2c(nc3ccccc13)CCCC2 [Tacrine, reference compound] as the compound, how does the “Melting temperature (Tm) of BuChE” value (BuChE) read?
**A.** increased Tm of BuChE
